Patent US6337091B1, “Matrix for controlled delivery of highly soluble pharmaceutical agents” (Temple University - of the Commonwealth System of Higher …, priority 1997, dated 2002)

Columns and labels:
[1] = cited from earlier work
[2] = Dissolution study of diltiazem hydrochloride tablets, USP 23 apparatus II (paddle), deionized water; assay type: physicochemical
Description: The system was automated using an HP diode array UV spectrophotometer, 8452a with continuous sampling, using a peristaltic pump (HP flow control, 89092A) and Mckinet software (HP 89532K Multicell Kinetics Software) for data analysis. Measurements were performed at 238 nm. […] Fresh dissolution medium (5 mL), heated to 37° C., was added to the vessel to maintain constant volume. Each experimental ran (n=3) was done at least in duplicate. […]

[3] = cited from earlier work; remark: listed apart in the source
[4] = Dissolution study of propranolol tablets in deionized water; assay type: physicochemical
Description: The dissolution study was performed in 1,000 ml deionized water at 37° C. and 100 rpm. Measurements were performed at wavelength 289 nm.

Structure (SMILES)	protein binding [1]	correlation coefficient of release profile (linearity) ([2]; absence of either gelatin or tragacanth)	correlation coefficient of release profile (linearity) ([2]; diltiazem granulated/coated with gelatin, in binary polymeric matrix)	correlation coefficient of release profile (linearity) ([2]; diltiazem granulated/coated with tragacanth, in binary polymeric matrix)	degradation product, HPLC analysis (USP 23 method) ([2]; entire dissolution period)	bioavailability ([3]; due to extensive variable first-pass metabolism)	clearance from plasma ([3]; in vivo)	elimination half-life ([3]; in vivo)	correlation coefficient of release profile (linearity) ([4]; control)	correlation coefficient of release profile (linearity) ([4]; propranolol granulated/coated with gelatin, in binary polymeric matrix)	correlation coefficient of release profile (linearity) ([4]; propranolol granulated/coated with tragacanth, in binary polymeric matrix)
COc1ccc([C@@H]2Sc3ccccc3N(CCN(C)C)C(=O)[C@@H]2OC(C)=O)cc1 [diltiazem, Diltiazem]	greater than 90%	0.946	0.997	0.979	no degradation product	30 to 60%	high clearance	3 to 6 h	–	–	–
CC(C)NCC(O)COc1cccc2ccccc12 (centres unmarked) [propranolol]	–	–	–	–	–	–	–	–	0.927	0.994	0.989
